Results reported in patent US8198507B2, “Transgenic or recombinant non-human mammals and their uses in screening psychoactive medicines” (Institut National de la Sante Et de la Recherche Medicale - …, priority 2000, dated 2012).

How the values were obtained:
STOP KO (−/−) mice [1] = conditions: STOP KO (−/−) mothers, short-term treatment (6 to 8 days before birth), 0.5 mg/kg/day in the drinking water, first day post-partum
Description: Post-partum females (second gestation) were reared individually from the beginning of their gestation. On the day of giving birth, the young mice were removed and kept in the warm for one hour. The mother was then removed from her usual cage and three newborns were each placed in a corner of this same cage, at a distance from the nest. Next, the mother was returned to her nest and the number of young mice reinstalled in the nest, over a period of 20 minutes, was evaluated.
The effect of anxiolytics (diazepam) and of neuro-leptics (chlorpromazine, haloperidol or clozapine) on the behavioral disorders of the STOP KO (−/−) mice was evaluated in the maternal behavior test as defined in example 3 (“reinstallation in the nest” test).
(§1) Haloperidol (Haldol^R, JANSSEN-CILAG), chlorpromazine (Largactil^R, RHONE-POULENC) and diazepam (Valium^R, ROCHE) were administered to the mice in the drinking water, at a dose of 0.5 mg/kg/day.
The effect of short-term administration (for 6 to 8 days from the 6th day preceding the birth) of anxiolytics (diazepam) and of neuroleptics (chlorpromazine, haloperidol or clozapine) on the behavioral disorders of the STOP KO (−/−) mice was evaluated in the “reinstallation in the nest” test.

STOP KO (−/−) mice [2] = assay: Survival of the newborns of treated STOP KO (−/−) mothers; assay type: in vivo; conditions: short-term treatment (6 to 8 days before birth), 0.5 mg/kg/day
Description: The survival of the newborns is analyzed among the STOP KO (−/−) mice subjected to various treatments. The newborns are considered to be survivors when they are raised until weaning.
as §1

CN1C(=O)CN=C(c2ccccc2)c2cc(Cl)ccc21 [diazepam]
reinstallation of the young mice in the nest (STOP KO (−/−) mice [1]): slightly improved
survival of the young mice (STOP KO (−/−) mice [2]): no survival
